Assay results reported in PubChem BioAssay (NCI).
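Briefly, cells in 96-well plates were exposed to five compound concentrations for 48 h, and endpoints were estimated by linear interpolation. The concentration for 50% growth inhibition is given as GI50. TGI marks complete inhibition of growth.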

What was measured:
Assay in all cases: NCI-60 cell line screen, 48 h
[1] = system: BT-549 breast
[2] = system: TK-10 renal
[3] = system: NCI/ADR-RES ovarian
[4] = system: HCC-2998 colon
[5] = system: MALME-3M melanoma
[6] = system: SK-MEL-28 melanoma
[7] = system: HT29 colon
[8] = system: K-562 leukemia
[9] = system: SW-620 colon
[10] = system: OVCAR-3 ovarian
[11] = system: COLO 205 colon
[12] = system: OVCAR-4 ovarian
[13] = system: U251 CNS
[14] = system: NCI-H23 lung
[15] = system: OVCAR-8 ovarian
[16] = system: MCF7 breast
[17] = system: EKVX NSCLC
[18] = system: ACHN renal
[19] = system: M14 melanoma
[20] = system: RPMI-8226 leukemia
[21] = system: HCT-15 colon
[22] = system: UO-31 renal
[23] = system: KM12 colon
[24] = system: CAKI-1 renal
[25] = system: SF-268 CNS
[26] = system: T-47D breast
[27] = system: PC-3 prostate
[28] = system: LOX IMVI melanoma
[29] = system: HCT-116 colon
[30] = system: UACC-257 melanoma
[31] = system: IGROV1 ovarian
[32] = system: OVCAR-5 ovarian
[33] = system: SNB-19 CNS
[34] = system: NCI-H460 lung
[35] = system: DU-145 prostate
[36] = system: UACC-62 melanoma
[37] = system: SF-539 CNS
[38] = system: SK-MEL-5 melanoma
[39] = system: NCI-H226 lung
[40] = system: HOP-62 NSCLC
[41] = system: MDA-MB-435
[42] = system: MOLT-4 leukemia
[43] = system: SR leukemia
[44] = system: 786-0 renal
[45] = system: HOP-92 NSCLC
[46] = system: A549 NSCLC
[47] = system: MDA-MB-231 breast
[48] = system: SK-MEL-2 melanoma
[49] = system: SN12C renal
[50] = system: HL-60(TB) leukemia
[51] = system: CCRF-CEM leukemia
[52] = system: SNB-75 CNS
[53] = system: HS 578T breast
[54] = system: SK-OV-3 ovarian
[55] = system: NCI-H522 lung
[56] = system: A498 renal
[57] = system: SF-295 CNS
[58] = system: RXF 393 renal

For `N#Cc1nnc2ccccc2c1N`, the TGI [1] was > 100 µM, the TGI [2] was > 100 µM and the TGI [3] was > 100 µM. The TGI [4] was > 100 µM, the TGI [5] was > 100 µM and the TGI [6] was > 100 µM. For the same compound, the TGI [7] was > 100 µM, the TGI [8] was > 100 µM and the TGI [9] was > 100 µM. The TGI [10] was 26.4 µM, the TGI [11] was > 100 µM and the TGI [12] was > 100 µM. The TGI [13] was > 100 µM, the TGI [14] was > 100 µM and the TGI [15] was > 100 µM. For the same compound, the TGI [16] was > 100 µM, the TGI [17] was > 100 µM and the TGI [18] was > 100 µM. The TGI [19] was > 100 µM, the TGI [20] was > 100 µM and the TGI [21] was > 100 µM. For the same compound, the TGI [22] was > 100 µM, the TGI [23] was > 100 µM and the TGI [24] was > 100 µM. For the same compound, the TGI [25] was > 100 µM, the TGI [26] was > 100 µM and the TGI [27] was > 100 µM. For the same compound, the TGI [28] was > 100 µM, the TGI [29] was > 100 µM and the TGI [30] was > 100 µM. For the same compound, the TGI [31] was > 100 µM, the TGI [32] was > 100 µM and the TGI [33] was > 100 µM. For the same compound, the TGI [34] was > 100 µM, the TGI [35] was > 100 µM and the TGI [36] was > 100 µM. The TGI [37] was > 100 µM, the TGI [38] was > 100 µM and the TGI [39] was > 100 µM. For the same compound, the TGI [40] was > 100 µM, the TGI [41] was > 100 µM and the TGI [42] was > 100 µM. For the same compound, the TGI [43] was > 100 µM, the TGI [44] was > 100 µM and the TGI [45] was > 100 µM. The TGI [46] was > 100 µM, the TGI [47] was > 100 µM and the TGI [48] was > 100 µM.

For `CC(C)OC(=O)Nc1ccc(-c2nc(-c3cccc(OCCN4CCOCC4)c3)c(-c3ccnc(Br)c3)[nH]2)cc1`, the GI50 [49] was 4.29 µM, the TGI [49] was > 100 µM and the GI50 [1] was 2.86 µM. The TGI [1] was > 100 µM, the GI50 [2] was 6.15 µM and the TGI [2] was > 100 µM. For the same compound, the GI50 [3] was 4.3 µM, the TGI [3] was > 100 µM and the GI50 [4] was 3.1 µM. The TGI [4] was > 100 µM, the GI50 [5] was 1.56 µM and the TGI [5] was 3.39 µM. It also gave a GI50 [6] of 1.67 µM, a TGI [6] of 4.16 µM and a GI50 [7] of 2.69 µM. The TGI [7] was > 100 µM, the GI50 [8] was 1.58 µM and the TGI [8] was > 100 µM. For the same compound, the GI50 [9] was 3.12 µM, the TGI [9] was > 100 µM and the GI50 [10] was 4.91 µM. For the same compound, the TGI [10] was > 100 µM, the GI50 [12] was 4.79 µM and the TGI [12] was > 100 µM. The GI50 [13] was 2.01 µM, the TGI [13] was > 100 µM and the GI50 [50] was 1.87 µM. For the same compound, the TGI [50] was 4.59 µM, the GI50 [14] was 1.99 µM and the TGI [14] was 4.72 µM. The GI50 [15] was 4.32 µM, the TGI [15] was > 100 µM and the GI50 [51] was 2.46 µM. The TGI [51] was > 100 µM, the GI50 [52] was 0.611 µM and the TGI [52] was 5.17 µM. It also gave a GI50 [17] of 2.39 µM, a TGI [17] of 7.55 µM and a GI50 [18] of 3.22 µM. The TGI [18] was > 100 µM, the GI50 [19] was 2.78 µM and the TGI [19] was 11.7 µM. The GI50 [20] was 0.549 µM, the TGI [20] was 2.91 µM and the GI50 [21] was 1.3 µM. The TGI [21] was 4.26 µM, the GI50 [53] was 0.461 µM and the TGI [53] was 2.76 µM. The GI50 [22] was 2.84 µM, the TGI [22] was > 100 µM and the GI50 [23] was 3.12 µM. The TGI [23] was > 100 µM, the GI50 [24] was 2.85 µM and the TGI [24] was > 100 µM. For the same compound, the GI50 [54] was 2.49 µM, the TGI [54] was 5.8 µM and the GI50 [25] was 4.05 µM. For the same compound, the TGI [25] was > 100 µM, the GI50 [26] was 2.61 µM and the TGI [26] was > 100 µM. The GI50 [27] was 2.96 µM, the TGI [27] was > 100 µM and the GI50 [28] was 1.56 µM. For the same compound, the TGI [28] was 3.39 µM, the GI50 [29] was 2.96 µM and the TGI [29] was > 100 µM. The GI50 [55] was 3.86 µM, the TGI [55] was > 100 µM and the GI50 [30] was 2.72 µM. The TGI [30] was 8.82 µM, the GI50 [31] was 4.39 µM and the TGI [31] was > 100 µM. The GI50 [32] was 4.97 µM, the TGI [32] was > 100 µM and the GI50 [33] was 3.22 µM. The TGI [33] was > 100 µM, the GI50 [34] was 3.63 µM and the TGI [34] was > 100 µM. The GI50 [35] was 4.8 µM, the TGI [35] was > 100 µM and the GI50 [36] was 2.31 µM. It also gave a TGI [36] of 6.28 µM, a GI50 [37] of 1.52 µM and a TGI [37] of 5.46 µM. It also gave a GI50 [38] of 1.79 µM, a TGI [38] of 3.27 µM and a GI50 [39] of 3.75 µM. The TGI [39] was > 100 µM, the GI50 [40] was 3.04 µM and the TGI [40] was > 100 µM. For the same compound, the GI50 [42] was 2.2 µM, the TGI [42] was > 100 µM and the GI50 [43] was 2.4 µM. The TGI [43] was > 100 µM, the GI50 [44] was 1.24 µM and the TGI [44] was 3.54 µM. For the same compound, the GI50 [45] was 2.45 µM, the TGI [45] was 7.99 µM and the GI50 [46] was 3.49 µM. For the same compound, the TGI [46] was > 100 µM, the GI50 [47] was 3.54 µM and the TGI [47] was 56.7 µM. For the same compound, the GI50 [56] was 1.23 µM, the TGI [56] was 4.12 µM and the GI50 [48] was 2.87 µM. The TGI [48] was 9.13 µM.

Compound `CC1(C)C2CCC1(C)[C@H](O)[C@H]2Nc1cc(C(F)(F)F)cc(C(F)(F)F)c1` (stereo partly specified) has a TGI [57] of 7.27 µM, a TGI [1] of 8.31 µM and a TGI [2] of 9.89 µM. The TGI [3] was 7.13 µM, the TGI [4] was 9.8 µM and the TGI [5] was 9.12 µM. It also gave a TGI [6] of 7.14 µM, a TGI [7] of 12.5 µM and a TGI [8] of 7.72 µM. For the same compound, the TGI [9] was 12 µM, the TGI [10] was 6.01 µM and the TGI [11] was 3.28 µM. It also gave a TGI [12] of 17.3 µM, a TGI [13] of 14.2 µM and a TGI [14] of 6.98 µM. The TGI [15] was 9.26 µM, the TGI [16] was > 100 µM and the TGI [52] was 3.56 µM. The TGI [17] was 12.5 µM, the TGI [18] was > 100 µM and the TGI [19] was 15.6 µM. The TGI [20] was 7.11 µM, the TGI [21] was 12.6 µM and the TGI [22] was 12.7 µM. The TGI [23] was 10.7 µM, the TGI [24] was 13.1 µM and the TGI [54] was 13.8 µM. It also gave a TGI [25] of 8.02 µM, a TGI [26] of 6.99 µM and a TGI [27] of 8.42 µM. It also gave a TGI [28] of 10.4 µM, a TGI [29] of 8.17 µM and a TGI [30] of 12.9 µM. For the same compound, the TGI [31] was 11.5 µM, the TGI [32] was 21.1 µM and the TGI [33] was 16.2 µM. The TGI [34] was 12 µM, the TGI [35] was 12.1 µM and the TGI [36] was > 100 µM. For the same compound, the TGI [37] was 15.6 µM, the TGI [38] was 17.6 µM and the TGI [39] was 19.4 µM. For the same compound, the TGI [40] was 17.7 µM, the TGI [41] was 11.6 µM and the TGI [42] was 5.91 µM. For the same compound, the TGI [43] was 9.23 µM, the TGI [44] was 12.2 µM and the TGI [46] was 13.6 µM. For the same compound, the TGI [47] was 15.3 µM, the TGI [56] was > 100 µM and the TGI [58] was 9.03 µM. The TGI [48] was 5.45 µM.
